Target: α-glucosidase
Experiment: enzyme inhibition assay with p-nitrophenyl-D-glycopyranoside substrate
Type: biochemical

Structure (SMILES) | IC50
COc1cccc(O)c1-c1cc(=O)c2c(O)c(OC)c(OC)c(OC)c2o1 [Skullcapflavone II] | 0.095 ± 0.0115 µM
COc1cc(O)c2c(=O)cc(-c3ccccc3O)oc2c1OC [Skullcapflavone I] | 0.103 ± 0.00843 µM
